Reference: ChEMBL document CHEMBL1629594, “Identification of a novel trimethoprim resistance gene, dfrK, in a methicillin-resistant Staphylococcus aureus ST398 strain and its physical linkage to the tetracycline resistance gene tet(L)” (2009)
Converted amounts (≈) assume the structure as drawn.

Columns and labels:
[1] = tested on: Staphylococcus aureus; assay: Antibacterial activity against methicillin-resistant Staphylococcus aureus ST398; format: functional
[2] = tested on: Escherichia coli; assay: Antibacterial activity against Escherichia coli JM109 expressing Bgl2

SMILES	MIC [1] [µg/mL]	MIC [2] [µg/mL]
CC1(C)S[C@@H]2[C@H](NC(=O)[C@H](N)c3ccccc3)C(=O)N2[C@H]1C(=O)O [AMPICILLIN]	8 (≈ 22.9 µM)	–
Cc1onc(-c2ccccc2)c1C(=O)N[C@@H]1C(=O)N2[C@@H]1SC(C)(C)[C@@H]2C(=O)O [OXACILLIN]	8 (≈ 19.9 µM)	–
CC1(C)S[C@@H]2[C@H](NC(=O)Cc3ccccc3)C(=O)N2[C@H]1C(=O)O [PENICILLIN G]	8 (≈ 23.9 µM)	–
CN(C)[C@@H]1C(O)=C(C(N)=O)C(=O)[C@@]2(O)C(O)=C3C(=O)c4c(O)cccc4[C@@](C)(O)[C@H]3C[C@@H]12 [TETRACYCLINE]	64 (≈ 144 µM)	–
COc1cc(Cc2cnc(N)nc2N)cc(OC)c1OC [TRIMETHOPRIM]	> 256	≥ 512
